For series [1], the target named is T1, rhamnosyltransferase 78D1 (Arabidopsis thaliana, UniProt Q9S9P6).
T1 construct: gene UGT78D1; codon-optimised synthetic gene in pET-28a (BamHI/EcoRI), E. coli BL21(DE3), Ni-NTA purified; theoretical monomer mass 50019 Da
T1 sequence (Q9S9P6 1-453): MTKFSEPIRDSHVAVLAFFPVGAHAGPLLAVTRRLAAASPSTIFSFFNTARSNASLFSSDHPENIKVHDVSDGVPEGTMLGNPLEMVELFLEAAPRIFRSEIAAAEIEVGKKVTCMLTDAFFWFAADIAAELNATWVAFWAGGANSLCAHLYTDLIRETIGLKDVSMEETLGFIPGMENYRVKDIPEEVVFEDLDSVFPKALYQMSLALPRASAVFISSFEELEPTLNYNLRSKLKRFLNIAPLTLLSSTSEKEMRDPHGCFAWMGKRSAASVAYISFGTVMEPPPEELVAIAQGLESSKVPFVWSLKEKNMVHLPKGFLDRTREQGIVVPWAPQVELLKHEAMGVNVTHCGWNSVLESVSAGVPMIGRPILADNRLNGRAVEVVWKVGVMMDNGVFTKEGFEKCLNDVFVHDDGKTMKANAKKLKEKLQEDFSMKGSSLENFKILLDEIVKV
In words: HPLC activity assay with […] UDP, […] min pre-incubation. Type of series: biochemical. Particulars: inhibitor; UDP-rhamnose donor, 0.5 mM isorhamnetin; 50 mM phosphate pH 7.5; 35 °C.

Substrate in series [2]: COc1cc(-c2oc3cc(O)cc(O)c3c(=O)c2O)ccc1O
Kind of series: HPLC of isorhamnetin-3-O-rhamnoside formation, initial rates. In kind it is biochemical, Arabidopsis thaliana. Particulars: co-substrate excess UDP-rhamnose, 50 mM phosphate pH 7.5, 35 °C.

Take `O=c1ccn([C@@H]2O[C@H](COP(=O)(O)OP(=O)(O)O)[C@@H](O)[C@H]2O)c(=O)[nH]1` [UDP]: in series [1], the “% activity” value is “The enzyme activity was inhibited when the concentration of UDP was gradually increased”.

B1: rhamnosyltransferase 78D1 (Arabidopsis thaliana) (protein)
chain: MTKFSEPIRDSHVAVLAFFPVGAHAGPLLAVTRRLAAASPSTIFSFFNTARSNASLFSSDHPENIKVHDVSDGVPEGTMLGNPLEMVELFLEAAPRIFRSEIAAAEIEVGKKVTCMLTDAFFWFAADIAAELNATWVAFWAGGANSLCAHLYTDLIRETIGLKDVSMEETLGFIPGMENYRVKDIPEEVVFEDLDSVFPKALYQMSLALPRASAVFISSFEELEPTLNYNLRSKLKRFLNIAPLTLLSSTSEKEMRDPHGCFAWMGKRSAASVAYISFGTVMEPPPEELVAIAQGLESSKVPFVWSLKEKNMVHLPKGFLDRTREQGIVVPWAPQVELLKHEAMGVNVTHCGWNSVLESVSAGVPMIGRPILADNRLNGRAVEVVWKVGVMMDNGVFTKEGFEKCLNDVFVHDDGKTMKANAKKLKEKLQEDFSMKGSSLENFKILLDEIVKV
notes: codon-optimised synthetic gene in pET-28a (BamHI/EcoRI), E. coli BL21(DE3), Ni-NTA purified; theoretical monomer mass 50019 Da
What is called Km is the concentration of substrate that gives half-maximal velocity. B1: the Km in series [2] is 181 µM.

The values above are taken from publication PMC6749346, “Synthesis of Isorhamnetin-3-O-Rhamnoside by a Three-Enzyme (Rhamnosyltransferase, Glycine Max Sucrose Synthase, UDP-Rhamnose Synthase) Cascade Using a UDP-Rhamnose Regeneration System” (Molecules, 2019).
